Measured values taken from patent US11033538B2, “Dosing regimens for the treatment of lysosomal storage diseases using pharmacological chaperones” (Amicus Therapeutics, Inc., priority 2007, dated 2021).
Values joined by “and” are separate entries in the source; they are usually repeats but may differ in a detail not shown here. Identical values can stand only once. Like-named read-outs stand apart in the source and are kept apart here. Marks after values point to notes of the source that are not given here.

Experiments:
Format in all cases: in vivo, human
[1] = Phase Ib twice-daily dose study of DGJ in healthy volunteers, plasma and urine pharmacokinetics
Experimental: Subjects were housed in the treatment facility from 14 hours prior to dosing until 24 hours after dosing. Meals were controlled by schedule and subjects remained abulatory for 4 hours post drug administration
Blood samples (10 mL each) were collected in blood collection tubes containing EDTA before dosing and at the following times thereafter: 0.25, 0.5, 0.75, 1, 1.5, 2, 3, 4, 5, 6, 7, 8, 9, 10, 11 and 12 hours. Blood samples were cooled in an ice bath and centrifuged under refrigeration as soon as possible. Plasma samples were divided into two aliquots and stored at […]. pending assay. At the end of the study, all samples were transferred to MDS Pharma Services Analytical Laboratories (Lincoln) for analysis.

Fabry patients = assay: Example 6, self-reported Fabry symptoms
From the text: Patients self-reported changes in symptoms at the end of 12 or 24 week treatment period to evaluate, inter alia, reduction in acroparaesthesia. This may be evidence of clearance of GL-3 in the microvasculature of peripheral nerve cells.

GL-3 [2] = assay: Example 15, qualitative GL-3 in glomerular cells; details: 12 months of DGJ
Experimental: GL-3 changes in podocytes, endothelial cells, and mesangial cells, and glomerular sclerosis, were assessed qualitatively by the same 3 pathologists blinded to treatment/visit.

GL-3 [3] = assay: Example 6, kidney biopsy GL-3 by mass spectroscopy
Experimental: Four male patients received a single 150 mg Q.O.D for 12 weeks (Group B); while five male patients received 150 mg Q.O.D. for 24 weeks (Group C). Finally nine female patients were randomized to receive one of three dosages: 50, 150 or 250 mg Q.O.D for 12 weeks (Group D) (FIG. 8).
Kidney biopsies were performed at baseline, 12 weeks and 24 weeks post-treatment and evaluated for GL-3 deposits in various renal cells. GL-3 presence in the tissue was examined histologically as well as through the use of mass spectroscopy. Light microscopic analysis of kidney biopsies was performed, wherein the accumulation of GL-3 in the tissue was classified in a manner similar to the classification analysis performed in Kidney International, Vol. 62 (2002), pp. 1933-1946 which is hereby incorporated by reference. Cells were classified as containing no GL-3 accumulation (“0”); mild GL-3 accumulation (“1”); moderate GL-3 accumulation (“2”); or severe GL-3 accumulation (“3”).
Kidney GL-3 levels were assessed using histological and mass spectroscopic analysis. Kidney biopsies were examined in four of the “good” responders, two of the “moderate” responders, and two of the “non” responders. Accumulation of GL-3 was examined in three different kidney cell types: interstitial capillaries, distal tubules, and podocytes.

α-GAL = details: first eleven patients treated at least 12 weeks; two regimens
Experimental: Eight patients in the study received an ascending dose of 25, 100, and then 250 mg b.i.d. over 6 weeks, followed by 50 mg/day for the remainder of the study.
For purposes of calculating the percentage of normal in the table, the level of α-GAL that is normal was derived by using the average of the levels of α-GAL in white blood cells of 15 healthy volunteers from the multiple-dose Phase I study.

[4] = system: patients with Fabry disease; assay: Example 15, Gastrointestinal Symptoms Rating Scale
Experimental: Patient-reported outcomes were assessed using the Gastrointestinal-Symptoms-Rating-Scale (GSRS), Short Form-36v2TM and Brief-Pain-Inventory-Pain-Severity-Component.

[5] = human, plasma, oral, 50 mg, 50 mg bid, Day 1
[6] = human, plasma, oral, 50 mg, 50 mg bid, Day 7
[7] = human, plasma, oral, 150 mg, 150 mg bid, Day 1
[8] = human, plasma, po, 150 mg, oral 150 mg DGJ hydrochloride
[9] = All Patients, OLE DGJ treatment, (95% CI)
[10] = Patients with Symptoms at BL, OLE DGJ treatment, (95% CI)
[11] = Patients with Symptoms at BL, Stage 1

Compound: OC[C@H]1NC[C@H](O)[C@@H](O)[C@H]1O [DGJ, (2R,3S,4R,5S)-2-(hydroxymethyl) piperdine-3,4,5-triol]
- 12 h cumulative renal excretion ([1]; 50 mg bid, Day 1): 16% and 16 ± 6%
- 12 h cumulative renal excretion ([1]; 50 mg bid, Day 7): 48% and 48 ± 7%
- Cmin ([1]; 50 mg bid, Day 7): 0.4 ± 0.03 µM
- dose dependence of Cmax ([1]; 50 mg to 150 mg): increased in a dose-proportional manner
- 12 h cumulative renal excretion ([1]; 150 mg bid, Day 1): 42% and 42 ± 7%
- 12 h cumulative renal excretion ([1]; 150 mg bid, Day 7): 60% and 60 ± 5%
- Cmax ([1]; 150 mg bid, Day 7): 10.8 ± 1.4 µM
- Cmin ([1]; 150 mg bid, Day 7): 1.2 ± 0.1 µM
- time of peak concentrations, on average ([1]; all dose levels): approximately 3 hours
- oral availability ([1]; healthy male volunteers): orally available
- Cmax [1, 5]: 2.3 ± 0.3 µM
- Tmax [1, 5]: 2.9 ± 0.4 h
- Cmax [1, 6]: 3.9 ± 0.5 µM
- Tmax [1, 6]: 2.5 ± 0.4 h
- Cmax [1, 7]: 11.3 ± 1.5 µM
- Tmax [1, 7]: 3.1 ± 0.4 h
- Tmax ([1]; human, plasma, oral, 150 mg, 150 mg bid, Day 7): 2.9 ± 0.4 h
- half-life ([1]; human, plasma, oral, 50 mg bid, Day 1, read-out: t½ (converted)): 2.5 h
- half-life ([1]; human, plasma, oral, 150 mg bid, Day 1, read-out: t½ (converted)): 2.4 h
- Cmax [1, 8]: 9 µM
- Tmax [1, 8]: 3 h
- half-life ([1]; human, plasma, po, 150 mg, read-out: Half-life (exponential decay) (converted)): 3 h
- self-reported symptoms (Fabry patients; four female expected good responders): decreases in pain
- self-reported symptoms (Fabry patients; seven male good responders): improved gastrointestinal function and a decrease in pain
- samples with increases in glomerular cell GL-3 (GL-3 [2]): None of the samples had increases
- biopsies with decrease in glomerular podocyte GL-3 (GL-3 [2]; 5 of 23 biopsies): 22%
- biopsies with decrease in endothelial cell GL-3 (GL-3 [2]; 6 of 23 biopsies): 26%
- biopsies with decrease in mesangial cell GL-3 (GL-3 [2]; 11 of 23 biopsies): 48%
- expected good responders with kidney GL-3 decrease of greater than 10% (GL-3 [3]; female): two of the five
- mean decrease in kidney GL-3 levels (mass spectoanalysis) (GL-3 [3]; female expected good responders): 20%
- good responders with kidney GL-3 decrease of greater than 10% (GL-3 [3]; male good responders): 3
- mean decrease in kidney GL-3 levels (mass spectroanalysis) (GL-3 [3]; male good responders): 28%
- patients with an increase in α-GAL activity (α-GAL): 10 of the 11
- GSRS Diarrhea, change from Baseline to Month 6 ([4]; All Patients, ITT-suitable, Stage 1 double-blind, p = 0.03): −0.3*^2
- GSRS Abdominal Pain, change to Month 24 [4, 9]: −0.2 (−0.5, +0.1)
- GSRS Constipation, change to Month 24 [4, 9]: −0.4 (−0.7, +0.0)*^5
- GSRS Diarrhea, change from Baseline (DGJ) or Month 6 (Placebo) to Month 24 [4, 9]: −0.5 (−0.9, −0.1)*^4
- GSRS Indigestion, change to Month 24 [4, 9]: −0.4 (−0.7, −0.04)*^4
- GSRS Reflux, change to Month 24 [4, 9]: −0.2 (−0.5, 0.2)
- GSRS Abdominal Pain, change from Baseline to Month 6 ([4]; All Patients, Stage 1): 0.0
- GSRS Constipation, change from Baseline to Month 6 ([4]; All Patients, Stage 1): +0.1
- GSRS Indigestion, change from Baseline to Month 6 ([4]; All Patients, Stage 1): −0.1
- GSRS Reflux, change from Baseline to Month 6 ([4]; All Patients, Stage 1): −0.1
- GSRS Abdominal Pain, change to Month 24 [4, 10]: −0.2 (−0.6, 0.1)
- GSRS Constipation, change to Month 24 [4, 10]: −0.5 (−1.1, +0.0)*^5
- GSRS Diarrhea, change to Month 24 [4, 10]: −1.0 (−1.5, −0.4)*^4
- GSRS Indigestion, change to Month 24 [4, 10]: −0.5 (−0.8, −0.06)*^4
- GSRS Reflux, change to Month 24 [4, 10]: −0.6 (−1.5, 0.2)
- GSRS Abdominal Pain, change from Baseline to Month 6 [4, 11]: −0.1
- GSRS Constipation, change from Baseline to Month 6 [4, 11]: +0.2
- GSRS Diarrhea, change from Baseline to Month 6 [4, 11]: −0.6
- GSRS Indigestion, change from Baseline to Month 6 [4, 11]: −0.2
- GSRS Reflux, change from Baseline to Month 6 ([4]; Patients with Symptoms at BL, Stage 1, p = 0.047): −0.6*^3
